Reference: patent US20230085549A1 (Janssen Pharmaceutica NV, priority 2021, published 2023)
Read-outs that look alike come from different tables or passages of the source.

Experiments:
[1] = test system: Beagle dogs; assay: Subchronic study in Beagle dogs with risperidone; assay type: in vivo; details: all doses tested ([…]-5.0 mg/kg)
Excerpt: (§1) Serum testosterone and sperm parameters partially recovered, but remained decreased after the last observation (two months after treatment was discontinued).

[2] = test system: pregnant mice, rats and rabbits; assay: Reproduction toxicity studies with orally administered risperidone; assay type: in vivo
Excerpt: Increased neuronal cell death occurred in the fetal brains of the offspring of pregnant rats treated at 0.5 to 1.2 times the MRHD; the postnatal development and growth of the offspring was delayed.

[3] = test system: Juvenile dogs; assay: Juvenile dog study with oral risperidone, 40 weeks
[4] = target: central Dopamine type 2 (D2) receptor (Homo sapiens, UniProt P14416); details: at paliperidone plasma concentration 7.5 ng/mL; cited from earlier work
Sequence of central Dopamine type 2 (D2) receptor (P14416 whole entry): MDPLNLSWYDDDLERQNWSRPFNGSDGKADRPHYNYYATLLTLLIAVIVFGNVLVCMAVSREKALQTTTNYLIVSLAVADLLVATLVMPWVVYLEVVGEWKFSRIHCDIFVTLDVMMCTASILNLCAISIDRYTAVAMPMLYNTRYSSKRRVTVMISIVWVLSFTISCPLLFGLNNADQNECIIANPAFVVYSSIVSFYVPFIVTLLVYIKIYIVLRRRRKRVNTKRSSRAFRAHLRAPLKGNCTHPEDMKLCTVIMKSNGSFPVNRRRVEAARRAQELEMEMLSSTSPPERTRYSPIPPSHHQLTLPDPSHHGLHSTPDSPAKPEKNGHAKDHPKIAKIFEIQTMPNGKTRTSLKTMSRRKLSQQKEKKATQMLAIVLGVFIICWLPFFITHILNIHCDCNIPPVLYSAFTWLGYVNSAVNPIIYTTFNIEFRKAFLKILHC

[5] = test system: mouse lymphoma; assay: Mouse lymphoma assay; assay type: cell-based
[6] = target: serotonin 5HT2A receptor (Homo sapiens, UniProt P28223); assay: biochemical
Sequence of serotonin 5HT2A receptor (P28223 whole entry): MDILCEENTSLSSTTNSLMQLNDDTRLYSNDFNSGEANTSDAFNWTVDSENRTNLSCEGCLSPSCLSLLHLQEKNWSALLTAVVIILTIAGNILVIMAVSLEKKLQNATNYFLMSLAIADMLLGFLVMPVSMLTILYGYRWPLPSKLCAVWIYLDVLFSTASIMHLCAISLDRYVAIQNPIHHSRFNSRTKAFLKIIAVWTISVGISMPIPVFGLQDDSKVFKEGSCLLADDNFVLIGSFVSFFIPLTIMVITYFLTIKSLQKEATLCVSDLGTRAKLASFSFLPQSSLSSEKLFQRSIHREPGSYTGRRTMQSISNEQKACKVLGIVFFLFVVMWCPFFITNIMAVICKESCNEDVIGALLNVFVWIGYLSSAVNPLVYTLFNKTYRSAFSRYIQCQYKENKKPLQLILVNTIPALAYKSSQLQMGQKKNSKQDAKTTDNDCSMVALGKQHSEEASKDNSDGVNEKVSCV

[7] = target: β1-adrenergic receptor (Homo sapiens, UniProt P08588); assay: In vitro receptor binding affinity
Sequence of β1-adrenergic receptor (P08588 whole entry): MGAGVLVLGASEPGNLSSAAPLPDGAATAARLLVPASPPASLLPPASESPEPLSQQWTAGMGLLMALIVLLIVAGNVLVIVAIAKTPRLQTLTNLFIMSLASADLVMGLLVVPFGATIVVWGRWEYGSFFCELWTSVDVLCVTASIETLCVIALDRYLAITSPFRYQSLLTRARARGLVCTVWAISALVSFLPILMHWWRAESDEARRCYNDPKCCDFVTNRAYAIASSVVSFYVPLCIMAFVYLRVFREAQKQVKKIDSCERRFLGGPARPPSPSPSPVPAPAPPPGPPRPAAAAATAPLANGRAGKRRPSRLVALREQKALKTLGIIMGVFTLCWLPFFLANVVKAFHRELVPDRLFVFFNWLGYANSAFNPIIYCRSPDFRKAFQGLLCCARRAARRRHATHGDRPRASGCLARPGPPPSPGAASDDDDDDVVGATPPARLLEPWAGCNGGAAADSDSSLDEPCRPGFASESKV

[8] = target: P-glycoprotein (P-gp) (Homo sapiens, UniProt P08183); assay: P-gp substrate and inhibition studies in vitro; assay type: in vitro ADME
Sequence of P-glycoprotein (P-gp) (P08183 whole entry): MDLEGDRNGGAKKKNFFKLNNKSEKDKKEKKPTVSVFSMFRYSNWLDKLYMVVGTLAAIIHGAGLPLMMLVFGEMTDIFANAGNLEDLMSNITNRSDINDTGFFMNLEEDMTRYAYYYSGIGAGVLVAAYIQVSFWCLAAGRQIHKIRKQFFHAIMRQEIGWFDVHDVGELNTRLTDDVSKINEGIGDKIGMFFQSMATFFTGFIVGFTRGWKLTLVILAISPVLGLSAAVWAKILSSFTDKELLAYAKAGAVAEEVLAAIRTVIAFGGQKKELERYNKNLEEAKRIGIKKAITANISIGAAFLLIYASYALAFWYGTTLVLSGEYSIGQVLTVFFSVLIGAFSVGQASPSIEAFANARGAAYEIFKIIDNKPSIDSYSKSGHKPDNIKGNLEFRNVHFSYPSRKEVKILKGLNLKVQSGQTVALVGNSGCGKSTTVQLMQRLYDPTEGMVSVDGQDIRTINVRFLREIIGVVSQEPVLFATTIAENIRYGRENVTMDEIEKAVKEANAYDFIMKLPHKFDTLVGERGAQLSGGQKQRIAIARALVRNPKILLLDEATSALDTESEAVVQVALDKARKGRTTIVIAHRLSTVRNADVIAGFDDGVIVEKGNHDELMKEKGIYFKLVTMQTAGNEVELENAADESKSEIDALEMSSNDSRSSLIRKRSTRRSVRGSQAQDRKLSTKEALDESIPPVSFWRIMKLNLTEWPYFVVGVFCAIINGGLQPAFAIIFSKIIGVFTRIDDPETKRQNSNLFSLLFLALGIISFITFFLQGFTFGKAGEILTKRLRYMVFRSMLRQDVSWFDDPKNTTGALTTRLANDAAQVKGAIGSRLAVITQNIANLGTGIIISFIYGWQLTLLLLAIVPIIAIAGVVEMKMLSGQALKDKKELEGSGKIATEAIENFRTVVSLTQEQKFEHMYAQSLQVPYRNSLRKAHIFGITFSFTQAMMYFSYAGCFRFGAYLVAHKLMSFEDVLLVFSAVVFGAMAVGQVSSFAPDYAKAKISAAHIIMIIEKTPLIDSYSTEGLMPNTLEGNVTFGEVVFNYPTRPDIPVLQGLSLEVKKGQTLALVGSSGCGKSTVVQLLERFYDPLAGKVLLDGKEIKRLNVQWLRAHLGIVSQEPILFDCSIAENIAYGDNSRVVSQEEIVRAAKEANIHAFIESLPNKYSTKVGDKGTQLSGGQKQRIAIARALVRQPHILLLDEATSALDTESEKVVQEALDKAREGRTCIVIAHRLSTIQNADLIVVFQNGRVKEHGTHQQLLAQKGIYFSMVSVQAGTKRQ

[9] = Plasma protein binding; assay type: in vitro ADME; details: racemic
[10] = test system: rat bone marrow; assay: In vivo rat bone marrow micronucleus test
[11] = clinical; details: human, in vivo, po, 4 mg
[12] = test system: pregnant rats and rabbits; assay: Animal reproduction studies, oral paliperidone during organogenesis; assay type: in vivo; details: period of organogenesis, mg/m^2
[13] = test system: cholinergic muscarinic receptors; assay: In vitro receptor binding affinity
[14] = test system: juvenile rats; assay: Juvenile rat study with oral paliperidone; assay type: in vivo
[15] = test system: rats; assay: Oral paliperidone study of fertility in rats; assay type: in vivo
Method: These parameters were not affected at an oral dose of 0.63 mg/kg, which is half of the oral MRHD of 12 mg based on mg/m^2 body surface area.
as §1

[16] = test system: CYP1A2, CYP2A6, CYP2C9, and CYP2C19; assay: CYP substrate studies in vitro; assay type: in vitro ADME, human
[17] = Pharmacokinetics in specific populations (oral paliperidone studies, population PK modelling); assay type: in vivo, human; details: elderly subjects
Excerpt: No specific pharmacokinetic studies have been performed with […] in specific populations. All the information is obtained from studies with oral paliperidone or is based on the population pharmacokinetic modelling of oral paliperidone and […].

[18] = test system: cytochrome P450 isozymes, including CYP1A2, CYP2A6, CYP2C8/9/10, CYP2D6, CYP2E1, CYP3A4, and CYP3A5; assay: Inhibition of drug metabolism in human liver microsomes; assay type: in vitro ADME
[19] = target: α1 adrenergic receptor; assay: In vitro receptor binding affinity; details: antagonist
[20] = human, in vivo, po
Excerpt: Observed signs and symptoms included extrapyramidal symptoms and gait unsteadiness.

[21] = Drug interaction studies with oral paliperidone; assay type: in vivo, human
Excerpt: Higher doses of paroxetine have not been studied.
This interaction has not been studied with INVEGA HAFYERA.

[22] = test system: bacteria; assay: In vitro Ames bacterial reverse mutation test; assay type: cell-based
[23] = target: central dopamine D2 receptor (Homo sapiens, UniProt P14416); assay: In vitro receptor binding affinity; details: antagonist
Sequence of central dopamine D2 receptor (P14416 whole entry): as the sequence (P14416 whole entry) above

[24] = target: β2-adrenergic receptor (Homo sapiens, UniProt P07550); assay: In vitro receptor binding affinity
Sequence of β2-adrenergic receptor (P07550 whole entry): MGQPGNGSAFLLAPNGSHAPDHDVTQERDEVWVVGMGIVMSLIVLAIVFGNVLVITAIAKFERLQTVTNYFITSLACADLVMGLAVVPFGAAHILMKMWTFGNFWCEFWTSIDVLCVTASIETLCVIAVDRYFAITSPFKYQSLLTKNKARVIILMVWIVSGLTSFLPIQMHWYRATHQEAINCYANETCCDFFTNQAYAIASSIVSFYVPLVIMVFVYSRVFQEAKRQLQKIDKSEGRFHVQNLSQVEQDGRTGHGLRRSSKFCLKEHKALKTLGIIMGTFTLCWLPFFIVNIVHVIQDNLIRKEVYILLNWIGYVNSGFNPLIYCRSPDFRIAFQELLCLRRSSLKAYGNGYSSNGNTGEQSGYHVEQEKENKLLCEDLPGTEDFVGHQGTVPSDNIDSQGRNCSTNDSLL

[25] = target: α2 adrenergic receptor; assay: In vitro receptor binding affinity; details: antagonist
[26] = Study with oral immediate-release 14C-paliperidone (excretion, metabolism); assay type: in vivo
[27] = Solubility in solvents and water; assay type: physicochemical

In the case of Cc1nc2n(c(=O)c1CCN1CCC(c3noc4cc(F)ccc34)CC1)CCCC2 [risperidone], the “effect on serum testosterone and sperm” value [1] is reported as “decreases in serum testosterone and in sperm motility and concentration”, the maternal toxicity ([2]; pregnant mice) is reported as 4 times the MRHD and the “learning impaired in adult offspring” value ([2]; pregnant rats) is reported as 0.6 times the MRHD. For the same compound, the “oral doses at which pup deaths occurred” value ([2]; rat reproduction studies, mg/m^2) was “less than the MRHD”, the “doses with no evidence of teratogenicity” value ([2]; rats and rabbits, embryo-fetal developmental toxicity) was “up to 6 times the MRHD of 16 mg/day” and the “no-effect dose for decreased bone length and density” value [3] was 0.31 mg/kg/day.
In the case of Cc1nc2n(c(=O)c1CCN1CCC(c3noc4cc(F)ccc34)CC1)CCCC2O (stereo not drawn) [paliperidone], the “central D2 receptor occupancy” value [4] is given as 60%, the genotoxicity [5] is given as “not genotoxic” and the Ki [6] is given as 0.8 to 1.2 nM. For the same compound, the affinity [7] was “no appreciable affinity”, the P-gp inhibition ([8]; at high concentrations) was “weak inhibitor” and the P-gp substrate ([8]; in vitro) was “substrate of P-glycoprotein (P-gp)”. The fraction unbound [9] was 0.26, the genotoxicity [10] was “not genotoxic” and the Cmax [11] was 35 ng/mL. The “exposure without increases in fetal abnormalities” value [12] was “up to 8 times the oral MRHD of 12 mg”, the affinity [13] was “no appreciable affinity” and the “no-effect dose for reversible impairment of learning and memory” value ([14]; females only, oral, days 24 to 73 of age) was 0.63 mg/kg/day. The “doses without other consistent effects on neurobehavioral or reproductive development” value ([14]; highest dose tested) was at most 2.5 mg/kg/day, the “oral doses at which percentage of treated female rats that became pregnant was not affected” value ([15]; 2 times the oral MRHD of 12 mg) was “up to 2.5 mg/kg/day” and the “dose with increased pre- and post-implantation loss and slightly decreased live embryos” value ([15]; female, rat, in vivo, po) was 2.5 mg/kg. For the same compound, the “oral dose at which these parameters were not affected” value ([15]; half of the oral MRHD of 12 mg) was 0.63 mg/kg, the “oral doses at which fertility of male rats was not affected” value ([15]; mg/m^2) was “up to 2 times the oral MRHD of 12 mg/day” and the “substrate of CYP isozymes” value [16] was “not a substrate for CYP1A2”. For the same compound, the “substrate of CYP isozymes” value ([16]; listed as Paliperidone) was “not a substrate”, the “increase of Cmax and AUC compared to young subjects” value [17] was 1.2 fold and the “inhibition of metabolism of drugs metabolized by cytochrome P450 isozymes” value [18] was “does not substantially inhibit”. For the same compound, the Ki [19] was 4 nM, the “highest estimated ingestion in overdose” value [20] was 405 mg and the “increase in Cmax and AUC of paliperidone” value ([21]; single 12 mg extended-release tablet with divalproex sodium ER two 500 mg tablets once daily) was “approximately 50%”. The “increase in renal clearance of paliperidone” value ([21]; with carbamazepine) was 35%, the “change in mean Cmax and AUC at steady-state” value ([21]; with paroxetine 20 mg/day oral) was “increase in mean Cmax and AUC values” and the genotoxicity [22] was “not genotoxic”. The Ki [23] was 1.6 to 2.8 nM, the affinity [24] was “no appreciable affinity” and the Ki [25] was 17 nM. For the same compound, the “dose excreted unchanged into urine” value ([26]; one week after single oral dose of 1 mg) was 59%, the “administered radioactivity recovered in the feces” value ([26]; single oral dose of 1 mg) was 11% and the “administered radioactivity recovered in urine” value ([26]; single oral dose of 1 mg) was “Approximately 80%”.
In the case of CCCCCCCCCCCCCCCC(=O)OC1CCCn2c1nc(C)c(CCN1CCC(c3noc4cc(F)ccc34)CC1)c2=O (racemic) [paliperidone palmitate, (±)-3-[2-[4-(6-fluoro-1,2-benzisoxazol-3-yl)-1-piperidinyl]ethyl]-6,7,8,9-tetrahydro-2-methyl-4-oxo-4H-pyrido[1,2-c]pyrimidin-9-yl hexadecanoate], the “solubility in ethanol and methanol” value [27] is reported as “very slightly soluble”, the “solubility in ethyl acetate” value [27] is reported as “slightly soluble” and the “solubility in polyethylene glycol 400 and propylene glycol” value [27] is reported as “practically insoluble”. The water solubility [27] was “extreme low water solubility”, the genotoxicity [5] was “no genotoxicity” and the genotoxicity [22] was “no genotoxicity”.
